Data as given in PubChem BioAssay (NCI).
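Exposure lasted 48 hours, with cells grown in 96-well plates and compounds tested at five concentrations. GI50: concentration for 50% inhibition of growth. TGI: total growth inhibition.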

Experiments:
Assay in all cases: growth of human tumour cells (NCI), 48 h
786-0 renal = system: 786-0 renal
A498 renal = system: A498 renal
A549 NSCLC = system: A549 NSCLC
ACHN renal = system: ACHN renal
BT-549 breast = system: BT-549 breast
CAKI-1 renal = system: CAKI-1 renal
CCRF-CEM leukemia = system: CCRF-CEM leukemia
COLO 205 colon = system: COLO 205 colon
DU-145 prostate = system: DU-145 prostate
EKVX NSCLC = system: EKVX NSCLC
HCC-2998 colon = system: HCC-2998 colon
HCT-116 colon = system: HCT-116 colon
HCT-15 colon = system: HCT-15 colon
HL-60(TB) leukemia = system: HL-60(TB) leukemia
HOP-62 NSCLC = system: HOP-62 NSCLC
HOP-92 NSCLC = system: HOP-92 NSCLC
HS 578T breast = system: HS 578T breast
HT29 colon = system: HT29 colon
IGROV1 ovarian = system: IGROV1 ovarian
K-562 leukemia = system: K-562 leukemia
KM12 colon = system: KM12 colon
LOX IMVI melanoma = system: LOX IMVI melanoma
MALME-3M melanoma = system: MALME-3M melanoma
MCF7 breast = system: MCF7 breast
MDA-MB-231 breast = system: MDA-MB-231 breast
MDA-MB-435 = system: MDA-MB-435
MDA-MB-468 breast = system: MDA-MB-468 breast
MOLT-4 leukemia = system: MOLT-4 leukemia
NCI-H226 lung = system: NCI-H226 lung
NCI-H23 lung = system: NCI-H23 lung
NCI-H460 lung = system: NCI-H460 lung
NCI-H522 lung = system: NCI-H522 lung
NCI/ADR-RES ovarian = system: NCI/ADR-RES ovarian
OVCAR-3 ovarian = system: OVCAR-3 ovarian
OVCAR-4 ovarian = system: OVCAR-4 ovarian
OVCAR-5 ovarian = system: OVCAR-5 ovarian
OVCAR-8 ovarian = system: OVCAR-8 ovarian
PC-3 prostate = system: PC-3 prostate
RPMI-8226 leukemia = system: RPMI-8226 leukemia
RXF 393 renal = system: RXF 393 renal
SF-268 CNS = system: SF-268 CNS
SF-295 CNS = system: SF-295 CNS
SF-539 CNS = system: SF-539 CNS
SK-MEL-2 melanoma = system: SK-MEL-2 melanoma
SK-MEL-28 melanoma = system: SK-MEL-28 melanoma
SK-OV-3 ovarian = system: SK-OV-3 ovarian
SN12C renal = system: SN12C renal
SNB-19 CNS = system: SNB-19 CNS
SNB-75 CNS = system: SNB-75 CNS
SR leukemia = system: SR leukemia
SW-620 colon = system: SW-620 colon
T-47D breast = system: T-47D breast
TK-10 renal = system: TK-10 renal
U251 CNS = system: U251 CNS
UACC-257 melanoma = system: UACC-257 melanoma
UACC-62 melanoma = system: UACC-62 melanoma
UO-31 renal = system: UO-31 renal

COC(=O)C[C@](O)(CCC(C)C)C(=O)O[C@H]1C(OC)=C[C@@]23CCCN2CCc2cc4c(cc2[C@@H]13)OCO4 was tested, and the TGI (786-0 renal) was greater than 12.3 µM, the TGI (A498 renal) was greater than 9.75 µM and the TGI (A549 NSCLC) was greater than 13.6 µM. The GI50 (ACHN renal) was 3.59 µM, the TGI (ACHN renal) was greater than 10.9 µM and the TGI (BT-549 breast) was greater than 10.1 µM. The TGI (CAKI-1 renal) was greater than 25.1 µM, the GI50 (CCRF-CEM leukemia) was 4.62 µM and the TGI (CCRF-CEM leukemia) was greater than 11.2 µM. The TGI (COLO 205 colon) was greater than 13.8 µM, the TGI (DU-145 prostate) was greater than 13.8 µM and the TGI (EKVX NSCLC) was greater than 16.8 µM. It also gave a GI50 (HCC-2998 colon) of 2.58 µM, a GI50 (HCT-116 colon) of 16.8 µM and a TGI (HCT-116 colon) greater than 40.5 µM. It also gave a GI50 (HCT-15 colon) of 4.08 µM, a TGI (HCT-15 colon) greater than 9.64 µM and a GI50 (HL-60(TB) leukemia) of 2.4 µM. The TGI (HOP-62 NSCLC) was greater than 21.9 µM, the TGI (HOP-92 NSCLC) was greater than 11 µM and the TGI (HS 578T breast) was greater than 11.1 µM. It also gave a GI50 (HT29 colon) of 4.69 µM, a TGI (HT29 colon) greater than 14 µM and a TGI (IGROV1 ovarian) greater than 15.1 µM. The GI50 (K-562 leukemia) was 2.73 µM, the TGI (K-562 leukemia) was greater than 40.5 µM and the TGI (KM12 colon) was greater than 15.6 µM. It also gave a GI50 (LOX IMVI melanoma) of 2.54 µM, a GI50 (MALME-3M melanoma) of 3.62 µM and a TGI (MALME-3M melanoma) greater than 8.33 µM. The GI50 (MCF7 breast) was 1.37 µM, the TGI (MDA-MB-231 breast) was greater than 17.8 µM and the TGI (MDA-MB-435) was greater than 14.4 µM. It also gave a GI50 (MDA-MB-468 breast) of 1.8 µM, a TGI (MDA-MB-468 breast) greater than 8.31 µM and a GI50 (MOLT-4 leukemia) of 10.5 µM. The TGI (MOLT-4 leukemia) was greater than 40.5 µM, the GI50 (NCI-H226 lung) was 2.57 µM and the TGI (NCI-H226 lung) was greater than 10.2 µM. The TGI (NCI-H23 lung) was greater than 9.5 µM, the GI50 (NCI-H460 lung) was 1.51 µM and the GI50 (NCI-H522 lung) was 3.3 µM. It also gave a TGI (NCI-H522 lung) greater than 8.77 µM, a GI50 (NCI/ADR-RES ovarian) of 1.5 µM and a TGI (NCI/ADR-RES ovarian) of 12 µM. For the same compound, the TGI (OVCAR-3 ovarian) was greater than 12.9 µM, the TGI (OVCAR-4 ovarian) was greater than 15.5 µM and the TGI (OVCAR-5 ovarian) was greater than 15.7 µM. It also gave a TGI (OVCAR-8 ovarian) greater than 13.8 µM, a TGI (PC-3 prostate) greater than 13.4 µM and a TGI (RPMI-8226 leukemia) greater than 8.64 µM. The GI50 (RXF 393 renal) was 2.65 µM, the TGI (SF-268 CNS) was greater than 19.6 µM and the TGI (SF-295 CNS) was greater than 11.2 µM. It also gave a GI50 (SF-539 CNS) of 3.17 µM, a TGI (SF-539 CNS) greater than 8.07 µM and a GI50 (SK-MEL-2 melanoma) of 1.62 µM. The TGI (SK-MEL-2 melanoma) was 8.71 µM, the TGI (SK-MEL-28 melanoma) was greater than 10.6 µM and the TGI (SK-OV-3 ovarian) was greater than 31 µM. The TGI (SN12C renal) was greater than 19.3 µM, the GI50 (SNB-19 CNS) was 3.91 µM and the TGI (SNB-19 CNS) was greater than 10.2 µM. The TGI (SNB-75 CNS) was greater than 11 µM, the GI50 (SR leukemia) was 17.1 µM and the TGI (SR leukemia) was greater than 40.5 µM. For the same compound, the TGI (SW-620 colon) was greater than 16.5 µM, the TGI (T-47D breast) was greater than 22.9 µM and the GI50 (TK-10 renal) was greater than 8 µM. It also gave a TGI (TK-10 renal) greater than 37.1 µM, a TGI (U251 CNS) greater than 11.9 µM and a TGI (UACC-257 melanoma) greater than 12.7 µM. It also gave a TGI (UACC-62 melanoma) greater than 14.6 µM and a TGI (UO-31 renal) greater than 14.8 µM.
